Reference: patent publication US12084472B2 (Ardelyx, Inc., priority 2015, dated 2024)

Molecular target: T1, human TGR5 (Homo sapiens, UniProt Q8TDU6)
T1 construct: expressed in transfected cells; host or cells: HEK293
T1 sequence (Q8TDU6 1-330): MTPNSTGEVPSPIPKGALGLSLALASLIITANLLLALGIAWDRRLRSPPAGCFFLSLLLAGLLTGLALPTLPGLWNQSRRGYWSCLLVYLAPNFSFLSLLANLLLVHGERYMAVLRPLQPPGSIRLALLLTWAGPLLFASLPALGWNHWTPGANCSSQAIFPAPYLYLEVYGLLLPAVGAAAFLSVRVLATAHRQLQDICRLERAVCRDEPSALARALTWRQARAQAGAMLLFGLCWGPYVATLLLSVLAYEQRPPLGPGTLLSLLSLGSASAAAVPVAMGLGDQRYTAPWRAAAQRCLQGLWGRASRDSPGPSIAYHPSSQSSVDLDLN
Test: Cell-based TGR5 assay (cAMP generation, HTRF)
Settings: HEK293 cells stably transfected with human TGR5; cAMP by HTRF; 30 minutes at 37° C.; read-out: pEC50 Human TGR5 (converted)
Description: A primary cell-based assay utilized HEK293 cells stably transfected with a gene encoding human TGR5. Cells were treated with candidate TGR5 activators and assessed for increased intercellular levels of cAMP.
TGR5-mediated cAMP generation was measured using a homogeneous time resolved fluorescence (HTRF) detection method (Cisbio). Test compounds were dissolved in DMSO to a final concentration of 10 mM. Serial 3-fold dilutions of the stock solution were made in DMSO, and these solutions were diluted 100-fold into Hanks Balanced Salt Solution supplemented with 10 mM HEPES pH 7.4, 0.003% Tween 20 and 0.5 mM isobutyl methylxanthine. Five microliters of diluted test compounds were added to wells of a black 384 well plate.
Cells grown overnight at 37° C./5% CO2 were harvested and resuspended in Hanks Balanced Salt Solution containing 10 mM HEPES to a concentration of […]. Five microliters (2500 cells) were dispensed into each well of the 384 well plate containing compound dilutions and incubated at 37° C. for 30 minutes. Each compound was tested in duplicate at 12 concentrations ranging from 0.05 nM to 10 μM.
Following incubation with test compounds, cAMP was detected through the successive addition of 5 μL each of cAMP labeled with the modified allophyocyanin dye d2 (cAMP-d2) and cryptate-labeled anti-cAMP in lysis buffer, and reading HTRF per the manufacturer's instructions.
A standard curve was used to convert the raw HTRF data into [cAMP]. The concentration of cAMP was plotted against log [test compound] and the resulting curves were fit to a 3-parameter logistical equation using GraphPad Prism to determine pEC50 (the negative log of the EC50) and the magnitude of the response.

EC50 [nM] | SMILES
< 100 | O=C1CCCN1CCCN(CCCCSc1ccc(Cl)c(COC2(c3cnccc3-c3ccccc3OC3CC3)CC2)c1)C(=O)[C@@H](O)[C@@H](O)[C@H](O)[C@@H](O)CO [Compound I-515, (2S,3S,4R,5S)-N-(4-{[4-chloro-3-({1-[4-(2-cyclopropoxyphenyl)pyridin-3-yl]cyclopropoxy}methyl)phenyl]sulfanyl}butyl)-2,3,4,5,6-pentahydroxy-N-[3-(2-oxopyrrolidin-1-yl)propyl]hexanamide]
< 100 | CC(C)(OCc1cc(Cl)ccc1Cl)c1cnccc1-c1ccccc1OC1CC1 [Compound I-740, 4-(2-cyclopropoxyphenyl)-3-(2-((2,5-dichlorobenzyl)oxy)propan-2-yl)pyridine]
< 100 | O=C(NCC1CCN(S(=O)(=O)c2ccc(Cl)c(COC3(c4cnccc4-c4ccccc4OC4CC4)CC3)c2)C1)NC[C@H](O)[C@@H](O)[C@H](O)[C@H](O)CO (stereo partly drawn) [Compound I-420, 1-({1-[4-chloro-3-({1-[4-(2-cyclopropoxyphenyl)pyridin-3-yl]cyclopropoxy}methyl)benzenesulfonyl]pyrrolidin-3-yl}methyl)-3-[(2S,3R,4R,5R)-2,3,4,5,6-pentahydroxyhexyl]urea]
< 100 | Cc1cc(COC2(c3cnccc3-c3ccccc3OC3CC3)CC2)c(Cl)cc1CCCCNC(=O)N[C@@H](CCCNC(=N)N)C(=O)O [Compound I-113, (2S)-5-carbamimidamido-2-[({4-[5-chloro-4-({1-[4-(2-cyclopropoxyphenyl)pyridin-3-yl]cyclopropoxy}methyl)-2-methylphenyl]butyl}carbamoyl)amino]pentanoic acid]
< 100 | O=C(NCCCCCS(=O)(=O)c1ccc(Cl)c(COC2(c3cnccc3-c3ccccc3OC3CC3)CC2)c1)NC[C@H](O)[C@@H](O)[C@H](O)[C@H](O)CO [Compound I-640, 1-{5-[4-chloro-3-({1-[4-(2-cyclopropoxyphenyl)pyridin-3-yl]cyclopropoxy}methyl)benzenesulfonyl]pentyl}-3-[(2S,3R,4R,5R)-2,3,4,5,6-pentahydroxyhexyl]urea]
< 100 | O=C(NC[C@H](O)[C@@H](O)[C@H](O)[C@H](O)CO)NC1CCC(CCNS(=O)(=O)c2ccc(Cl)c(COC3(c4cnccc4-c4ccccc4OC4CC4)CC3)c2)CC1 (stereo partly drawn) [Compound I-422, 1-(4-{2-[4-chloro-3-({1-[4-(2-cyclopropoxyphenyl)pyridin-3-yl]cyclopropoxy}methyl)benzenesulfonamido]ethyl}cyclohexyl)-3-[(2S,3R,4R,5R)-2,3,4,5,6-pentahydroxyhexyl]urea]
< 100 | CC(CCCCNC(=O)[C@@H](O)[C@@H](O)[C@H](O)[C@@H](O)CO)c1ccc(Cl)c(COC2(c3cnccc3-c3ccccc3OC3CC3)CC2)c1 (stereo partly drawn) [Compound I-308, (2S,3S,4R,5S)-N-{5-[4-chloro-3-({1-[4-(2-cyclopropoxyphenyl)pyridin-3-yl]cyclopropoxy}methyl)phenyl]hexyl}-2,3,4,5,6-pentahydroxyhexanamide]
< 100 | CC(CCCC(=O)N(CCCCCO)C[C@H](O)[C@@H](O)[C@H](O)[C@H](O)CO)c1ccc(Cl)c(CNC2(c3cnccc3-c3ccccc3OC3CC3)CC2)c1 (stereo partly drawn) [Compound I-261, 5-(4-chloro-3-(((1-(4-(2-cyclopropoxyphenyl)pyridin-3-yl)cyclopropyl)amino)methyl)phenyl)-N-(5-hydroxypentyl)-N-((2S,3R,4R,5R)-2,3,4,5,6-pentahydroxyhexyl) hexanamide]
< 100 | CC(CCCN(CCOCCO)C(=O)[C@@H](O)[C@@H](O)[C@H](O)[C@@H](O)CO)c1ccc(Cl)c(CNC2(c3cnccc3-c3ccccc3OC3CC3)CC2)c1 (stereo partly drawn) [Compound I-286, (2S,3S,4R,5S)-N-(4-{4-chloro-3-[({1-[4-(2-cyclopropoxyphenyl)pyridin-3-yl]cyclopropyl}amino)methyl]phenyl}pentyl)-2,3,4,5,6-pentahydroxy-N-[2-(2-hydroxyethoxy)ethyl]hexanamide]
126 to 1000 | CC(CCCC(=O)N(CC(=O)N(C)C)C[C@H](O)[C@@H](O)[C@H](O)[C@H](O)CO)c1ccc(Cl)c(CNC2(c3cnccc3-c3ccccc3OC3CC3)CC2)c1 (stereo partly drawn) [Compound I-340, 5-{4-chloro-3-[({1-[4-(2-cyclopropoxyphenyl)pyridin-3-yl]cyclopropyl}amino)methyl]phenyl}-N-[(dimethylcarbamoyl)methyl]-N-[(2S,3R,4R,5R)-2,3,4,5,6-pentahydroxyhexyl]hexanamide]
< 100 | CC(CCCC(=O)N[C@@H](CO)[C@@H](O)[C@H](O)[C@H](O)CO)c1ccc(Cl)c(CNC2(c3cnccc3-c3ccccc3OC3CC3)CC2)c1 (stereo partly drawn) [Compound I-313, 5-{4-chloro-3-[({1-[4-(2-cyclopropoxyphenyl)pyridin-3-yl]cyclopropyl}amino)methyl]phenyl}-N-[(2S,3R,4S,5R)-1,3,4,5,6-pentahydroxyhexan-2-yl]hexanamide]
< 100 | O=C(NCCCCCSc1ccc(Cl)c(COC2(c3cnccc3-c3ccccc3OC3CC3)CC2)c1)NC[C@H](O)[C@@H](O)[C@H](O)[C@H](O)CO [Compound I-488, 1-(5-[[4-Chloro-3-([1-[4-(2-cyclopropoxyphenyl)pyridin-3-yl]cyclopropoxy]methyl)phenyl]sulfanyl]pentyl)-3-[(2S,3R,4R,5R)-2,3,4,5,6-pentahydroxyhexyl]urea]
< 100 | CN(CCCCCc1cc(Cl)c(COC2(c3cnccc3-c3ccccc3OC3CC3)CC2)cc1Cl)C(=O)[C@@H](O)[C@@H](O)[C@H](O)[C@@H](O)CO (stereo in doubt) [Compound I-228, (2S,3S,4R,5S)-N-{5-[2,5-dichloro-4-({1-[4-(2-cyclopropoxyphenyl)pyridin-3-yl]cyclopropoxy}methyl)phenyl]pentyl}-2,3,4,5,6-pentahydroxy-N-methylhexanamide]
126 to 1000 | O=C(O)CCN(C[C@H](O)[C@@H](O)[C@H](O)[C@H](O)CO)C(=O)CCCCc1cc(Cl)c(CNC2(c3cnccc3-c3ccccc3OC3CC3)CC2)cc1Cl [Compound I-178, 3-(5-{2,5-dichloro-4-[({1-[4-(2-cyclopropoxyphenyl)pyridin-3-yl]cyclopropyl}amino)methyl]phenyl}-N-[(2S,3R,4R,5R)-2,3,4,5,6-pentahydroxyhexyl]pentanamido)propanoic acid]
< 100 | O=C(NCCCCSc1ccc(Cl)c(CNC2(c3cnccc3-c3ccccc3OC3CC3)CC2)c1)NC[C@H](O)[C@@H](O)[C@H](O)[C@H](O)CO [Compound I-623, 1-[4-({4-chloro-3-[({1-[4-(2-cyclopropoxyphenyl)pyridin-3-yl]cyclopropyl}amino)methyl]phenyl}sulfanyl)butyl]-3-[(2S,3R,4R,5R)-2,3,4,5,6-pentahydroxyhexyl]urea]
126 to 1000 | O=C(NCCOCC[S+]([O-])c1ccc(Cl)c(COC2(c3cnccc3-c3ccccc3OC3CC3)CC2)c1)NC[C@H](O)[C@@H](O)[C@H](O)[C@H](O)CO (stereo partly drawn) [Compound I-491, 1-[2-(2-[[4-chloro-3-([1-[4-(2-cyclopropoxyphenyl)pyridin-3-yl]cyclopropoxy]methyl)benzene]sulfinyl]ethoxy)ethyl]-3-[(2S,3R,4R,5R)-2,3,4,5,6-pentahydroxyhexyl]urea]
< 100 | O=C1O[C@H]([C@@H](O)[C@H](O)[C@H](O)CO)CN1CCCCc1cc(Cl)c(COC2(c3cnccc3-c3ccccc3OC3CC3)CC2)cc1Cl [Compound I-77, (5S)-3-{4-[2,5-dichloro-4-({1-[4-(2-cyclopropoxyphenyl)pyridin-3-yl]cyclopropoxy}methyl)phenyl]butyl}-5-[(1S,2R,3R)-1,2,3,4-tetrahydroxybutyl]-1,3-oxazolidin-2-one]
< 100 | O=C(NCC1CCCN(S(=O)(=O)c2ccc(Cl)c(COC3(c4cnccc4-c4ccccc4OC4CC4)CC3)c2)C1)NC[C@H](O)[C@@H](O)[C@H](O)[C@H](O)CO (stereo in doubt) [Compound I-426, 1-({1-[4-chloro-3-({1-[4-(2-cyclopropoxyphenyl)pyridin-3-yl]cyclopropoxy}methyl)benzenesulfonyl]piperidin-3-yl}methyl)-3-[(2S,3R,4R,5R)-2,3,4,5,6-pentahydroxyhexyl]urea]
< 100 | CC(CCCCNC(=O)N[C@@H](CO)[C@@H](O)[C@H](O)[C@H](O)CO)c1ccc(Cl)c(CNC2(c3cnccc3-c3ccccc3OC3CC3)CC2)c1 (stereo partly drawn) [Compound I-266, 1-(5-{4-chloro-3-[({1-[4-(2-cyclopropoxyphenyl)pyridin-3-yl]cyclopropyl}amino)methyl]phenyl}hexyl)-3-[(2S,3R,4S,5R)-1,3,4,5,6-pentahydroxyhexan-2-yl]urea]
